The values that follow come from publication PMC3741162, “Structures of Streptococcus pneumoniae PiaA and Its Complex with Ferrichrome Reveal Insights into the Substrate Binding and Release of High Affinity Iron Transporters” (PLoS ONE, 2013).

Where a SMILES comes first, the peptide text is derived from it. [ ]: non-standard residue; d: D form. Orn(N5-OH,N5-Ac) = CC(=O)N(O)CCC[C@H](N)C(=O)O

For assay [1], the target named is T1, PiaA (Streptococcus pneumoniae, UniProt A0A0H2UPT5, W63A).
T1 construct: gene SP_1032; residues Asn23-Lys341, N-terminal 6×His-tag
T1 sequence (A0A0H2UPT5 23-341 W63A): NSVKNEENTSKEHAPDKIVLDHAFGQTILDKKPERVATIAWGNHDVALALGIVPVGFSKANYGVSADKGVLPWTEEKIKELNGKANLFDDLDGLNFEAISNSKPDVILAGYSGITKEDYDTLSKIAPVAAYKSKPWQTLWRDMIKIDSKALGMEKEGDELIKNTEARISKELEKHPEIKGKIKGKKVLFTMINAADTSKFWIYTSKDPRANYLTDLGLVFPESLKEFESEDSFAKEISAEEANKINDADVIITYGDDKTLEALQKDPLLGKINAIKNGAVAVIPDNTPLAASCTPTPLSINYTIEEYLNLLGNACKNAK
Put plainly: ITC. The class given is binding.

For assay [2], the target named is T2, PiaA (Streptococcus pneumoniae, UniProt A0A0H2UPT5).
T2 construct: gene SP_1032; residues Asn23-Lys341, N-terminal 6×His-tag
Kind of assay: ITC and crystal structure ([…] Å). The class given is binding.

`CC(=O)N([O-])CCC[C@@H]1NC(=O)CNC(=O)CNC(=O)CNC(=O)[C@H](CCCN([O-])C(C)=O)NC(=O)[C@H](CCCN([O-])C(C)=O)NC1=O.[Fe+3]` [ferrichrome] (cyclo(GGG[Orn(N5-OH,N5-Ac)][Orn(N5-OH,N5-Ac)][Orn(N5-OH,N5-Ac)])): the Kd – broadly, the free concentration of one partner at which half of the binding sites on the other are occupied at equilibrium, for simple one-to-one binding – was about 0.0328 µM at PiaA [1] and 0.0058 ± 0.0014 µM at PiaA [2].
